Data set [1] can be described thus: Molar enthalpy of transition or fusion. Conditions: Crystal; DSC.
For data set [2] the following is noted: Crystal; DSC.

The structures appear in SMILES notation. Numbers after ± are expanded uncertainties.

The text below walks through data of the NIST ThermoML archive (doi:10.1021/acs.jced.9b00844).

`N=C(N)NC(=N)NCCc1ccccc1` [N-(2-phenylethyl)imidodicarbonimidic diamide]: the “Molar enthalpy of transition or fusion” value in data set [1] came out at 2.78 ± 0.179 kcal/mol. In addition, the Triple point temperature in data set [2] turned out to be 446.85 ± 1.2 K.
